From PubChem BioAssay AID328 (DTP/NCI, 2004)
Several values for one entry are separate records, joined by “and”; a condition that tells them apart may be missing. Equal values may be shown once. Inconclusive results and toxic doses are left out.

System: BDF1 mice, P388 leukemia ip, median survival T/C
Assay: NCI In Vivo Anticancer Drug Screen. Data for tumor model P388 Leukemia (intraperitoneal) in B6D2F1 (BDF1) mice
Settings: endpoint: median survival time, higher = longer survival
Summary of the method: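 Each value expresses how treatment altered survival: treated-mouse outcome over vehicle-mouse outcome, both groups bearing the transplanted tumour.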

[1] = dose: 100.0 mg/kg/injection, schedule: Q04DX003 (ip), vehicle: Klucel (hydroxypropylcellulose) (HPC)
[2] = dose: 200.0 mg/kg/injection, schedule: Q04DX003 (ip), vehicle: Klucel (hydroxypropylcellulose) (HPC)
[3] = dose: 400.0 mg/kg/injection, schedule: Q04DX003 (ip), vehicle: Klucel (hydroxypropylcellulose) (HPC)
[4] = dose: 50.0 mg/kg/injection, schedule: Q01DX009 (ip), vehicle: saline with Tween-80
[5] = dose: 100.0 mg/kg/injection, schedule: Q01DX009 (ip), vehicle: saline with Tween-80
[6] = dose: 200.0 mg/kg/injection, schedule: Q01DX009 (ip), vehicle: saline with Tween-80
[7] = dose: 100.0 mg/kg/injection, schedule: Q04DX003 (ip), vehicle: saline with Tween-80
[8] = dose: 200.0 mg/kg/injection, schedule: Q04DX003 (ip), vehicle: saline with Tween-80

**Q.** `CCOS(C)(=O)=O` was tested. Which T/C (dose: 50.0 mg/kg/injection, schedule: Q01DX009 (ip), vehicle: saline) did it give?
**A.** 90 % of control

**Q.** And the T/C (dose: 100.0 mg/kg/injection, schedule: Q01DX009 (ip), vehicle: saline)?
**A.** 100 % of control

**Q.** What about the T/C (dose: 100.0 mg/kg/injection, schedule: Q04DX003 (ip), vehicle: saline) of the same molecule?
**A.** 100 % of control

**Q.** What about the T/C (dose: 200.0 mg/kg/injection, schedule: Q04DX003 (ip), vehicle: saline) of the same molecule?
**A.** 105 % of control

**Q.** How did the T/C (dose: 25.0 mg/kg/injection, schedule: Q01DX001 (ip), vehicle: Klucel (hydroxypropylcellulose) (HPC)) turn out when `Cc1[nH]c2cc(Br)ccc2c1/C=N/NC(N)=S` was run?
**A.** 107 % of control

**Q.** What about the T/C (dose: 50.0 mg/kg/injection, schedule: Q01DX001 (ip), vehicle: Klucel (hydroxypropylcellulose) (HPC)) of the same molecule?
**A.** 102 % of control

**Q.** What about the T/C (dose: 100.0 mg/kg/injection, schedule: Q01DX001 (ip), vehicle: Klucel (hydroxypropylcellulose) (HPC)) of the same molecule?
**A.** 103 % of control

**Q.** Which results are given for `COC(=O)CCCCCCCC(=O)OCC#CC#CCOC(=O)CCCCCCCC(=O)OC`?
**A.** T/C [1]: 109 % of control; T/C [2]: 104 % of control; T/C [3]: 104 % of control

**Q.** How did the T/C [4] turn out when `O=C(/C=C/c1ccc(OCc2ccccc2)cc1)c1cccc(Br)c1` was run?
**A.** 89 % of control

**Q.** And the T/C [5]?
**A.** 100 % of control

**Q.** And the T/C [6]?
**A.** 91 % of control

**Q.** With `COc1ccccc1/C=C/c1ccnc2ccccc12` as the molecule, how does the T/C (dose: 100.0 mg/kg/injection, schedule: Q01DX009 (ip), vehicle: Klucel (hydroxypropylcellulose) (HPC)) read?
**A.** 95 % of control

**Q.** And the T/C [1]?
**A.** 110 % of control

**Q.** What about the T/C (dose: 200.0 mg/kg/injection, schedule: Q01DX009 (ip), vehicle: Klucel (hydroxypropylcellulose) (HPC)) of the same molecule?
**A.** 113 % of control

**Q.** And the T/C [2]?
**A.** 115 % of control

**Q.** What about the T/C (dose: 400.0 mg/kg/injection, schedule: Q01DX009 (ip), vehicle: Klucel (hydroxypropylcellulose) (HPC)) of the same molecule?
**A.** 122 % of control

**Q.** What about the T/C [3] of the same molecule?
**A.** 105 % of control

**Q.** What does the source list for `NOCc1cccc(Cl)c1`?
**A.** T/C (dose: 50.0 mg/kg/injection, schedule: Q04DX003 (ip), vehicle: saline with Tween-80): 91 % of control; T/C [7]: 91 % of control

**Q.** What does the source list for `CCNC1=C(N2CC2)C(=O)C(NCC)=C(N2CC2)C1=O`?
**A.** T/C (dose: 0.37 mg/kg/injection, schedule: Q01DX009 (ip), vehicle: saline): 156 % of control and 175 % of control; T/C (dose: 0.75 mg/kg/injection, schedule: Q01DX009 (ip), vehicle: saline): 193 % of control and 203 % of control; T/C (dose: 1.5 mg/kg/injection, schedule: Q01DX009 (ip), vehicle: saline): 228 % of control and 178 % of control

**Q.** Which results are given for `CS(=O)CC(O)(c1ccc(F)cc1)C1CC1` (configuration not stated)?
**A.** T/C [4]: 99 % of control; T/C [5]: 103 % of control

**Q.** For `O=C1CCCCC1Oc1ccccc1` (configuration not stated), which T/C [5] is on record?
**A.** 95 % of control

**Q.** And the T/C [7]?
**A.** 95 % of control

**Q.** And the T/C [6]?
**A.** 91 % of control

**Q.** And the T/C [8]?
**A.** 100 % of control

**Q.** What about the T/C (dose: 400.0 mg/kg/injection, schedule: Q04DX003 (ip), vehicle: saline with Tween-80) of the same molecule?
**A.** 100 % of control

**Q.** For `O=c1cc(-c2cccs2)ss1`, which T/C (dose: 25.0 mg/kg/injection, schedule: Q01DX009 (ip), vehicle: saline with Tween-80) is on record?
**A.** 106 % of control

**Q.** What about the T/C [4] of the same molecule?
**A.** 97 % of control

**Q.** What about the T/C [5] of the same molecule?
**A.** 86 % of control and 106 % of control

**Q.** And the T/C [7]?
**A.** 106 % of control

**Q.** What about the T/C [6] of the same molecule?
**A.** 116 % of control

**Q.** And the T/C [8]?
**A.** 92 % of control

**Q.** What does the source list for `Cc1cc(C)c(S(=O)(=O)OCCCl)c(C)c1`?
**A.** T/C (dose: 50.0 mg/kg/injection, schedule: Q01DX005 (ip), vehicle: Klucel (hydroxypropylcellulose) (HPC)): 106 % of control; T/C (dose: 100.0 mg/kg/injection, schedule: Q01DX005 (ip), vehicle: Klucel (hydroxypropylcellulose) (HPC)): 95 % of control

**Q.** What does the source list for `C=C1C(=O)OC2CC(C)CCC/C(CO)=C/C(OC(=O)/C(=C/CO)CO)C12` (configuration not stated)?
**A.** T/C (dose: 3.5 mg/kg/injection, schedule: Q01DX009 (ip), vehicle: saline): 104 % of control; T/C (dose: 7.0 mg/kg/injection, schedule: Q01DX009 (ip), vehicle: saline): 108 % of control

**Q.** Which results are given for `CCN(CC)CCCC(C)Nc1c2ccccc2nc2c(Cl)cccc12` (configuration not stated)?
**A.** T/C (dose: 25.0 mg/kg/injection, schedule: Q01DX009 (ip), vehicle: saline sonified): 88 % of control; T/C (dose: 50.0 mg/kg/injection, schedule: Q01DX009 (ip), vehicle: saline sonified): 94 % of control

**Q.** How did the T/C (dose: 0.11 mg/kg/injection, schedule: Q01DX009 (ip), vehicle: saline + alcohol) turn out when `CC12CCC3C(CCC4=CC(O)CCC43C=O)C1(O)CCC2c1ccc(=O)oc1` (configuration not stated) was run?
**A.** 100 % of control

**Q.** What about the T/C (dose: 0.33 mg/kg/injection, schedule: Q01DX009 (ip), vehicle: saline + alcohol) of the same molecule?
**A.** 95 % of control

**Q.** And the T/C (dose: 1.0 mg/kg/injection, schedule: Q01DX009 (ip), vehicle: saline + alcohol)?
**A.** 95 % of control

**Q.** What about the T/C (dose: 3.0 mg/kg/injection, schedule: Q01DX010 (ip), vehicle: carboxymethylcellulose (CMC)) of the same molecule?
**A.** 95 % of control
